For one experiment, the system named is HT22 cells. In words: HT22 oxidative glutamate toxicity (oxytosis) assay. The format is cell-based, mouse. As to conditions: Oxidative glutamate toxicity (oxytosis); read-out: HT-22 EC50. How it is done: FIG. 1D illustrates the results of an oxidative stress assay. HT22 cells were treated with 5 mM glutamate and different concentrations of two versions of curcumin derivatives. Cell viability was measured 24 hr later by the MTT assay (J. B. Davis and P. Maher, Protein kinase C activation inhibits glutamate-induced cytotoxicity in a neuronal cell line. Brain Res. 652 (1994) 169-173). Legend for FIG. 1A, FIG. 1B and FIG. 1D: x-x, Cmpd CNB-001, o-o, Cmpd J147.
Similar toxicity assays as described above are also conducted with invention compounds using HT22 cells in an assay for oxidative stress. After exposure with 1 mM, 2 mM, 2.5 mM, or 5 mM glutamate, cell viability is determined with the MTT assay.
HT22 hippocampal neurons are treated with 5 mM glutamate and increasing concentrations of invention compounds. Cell viability is measured 24 hr later by the MTT assay (Davis and Maher, Brain Res. 652:169-173 (1994)).

Another experiment concerns MC-65 cells. Description: MC65 intracellular amyloid toxicity assay. Format: cell-based. The note with it: Intracellular amyloid toxicity; read-out: MC65 EC50. How it is done: FIG. 4A illustrates the viability of MC-65 cells upon exposure to the indicated concentrations of compounds, and the degree to which synthesis of the C-terminal fragment of APP is induced by the removal of tetracycline. Cell death was determined 5 days later by the MTT assay and confirmed visually. The data are plotted as percent viable, relative to controls of drug plus un-induced cells.

In the next experiment the test system is primary cortical neurons. In words: Trophic factor withdrawal (TFW) assay. The format is cell-based, rat. The note with it: Trophic factor withdrawal assay; read-out: TFW EC50. As to the method:
FIG. 1A illustrates the results of a trophic factor withdrawal assay. Primary cortical neurons are prepared from 18-day-old rat embryos, and cultured at low cell density 1×10^6/35 mm dish, in serum containing medium, with different compounds Viability is then assayed 2 days later using a fluorescent live-dead assay (Molecular Probes).
Primary cortical neurons can be prepared from 18-day-old embryos of Sprague-Dawley rats as described (Liu & Schubert, J. Neurochem., 1997, 69:2285-2293 and J. Neurochem., 1998, 71:2322-2329). Briefly, the cerebral cortex is dissected out under an anatomical microscope and is freed of meninges and blood vessels. The cortex is cut into small pieces and is then dissociated by trypsin digestion and passed through a pipette tip. Dissociated neurons are suspended in various media and plated on polylysine-coated 35 mm tissue culture dishes (e.g., 1×10^6 cells/dish). Several different culture conditions can be used as known in the art. Invention compounds can be added to cell culture dishes. Cell survival can be measured 1-2 days after compound administration.
A serum-containing medium can be used which includes a minimal essential medium (Sigma) containing 30 mM glucose, 2 mM glutamine, 1 mM pyruvate, penicillin (100 U/ml), streptomycin (100 μg/ml), and 10% fetal calf serum. At a plating density of 1×10^6 cells/dish, most neurons die after one week of culture in this medium. If plated at a density of 2×10^6 cells/dish, then most neurons survive. The cell density-dependent neuronal survival in this system is most likely dependent on the neurotrophic factors secreted by the neurons, not by the glia. The results are the same when glial proliferation is inhibited by cytosine arabinoside.
The structure-activity relationships of compounds according to the present invention can be determined by measuring trophic factor withdrawal in […] primary cortical neurons. As shown in FIG. 1A-FIG. 1D, compounds are added to low density primary cultures of E18 rat cortical neurons at the time of plating, and cell survival is determined two days later by a variety of methods.

The test system of a further experiment is Wistar rats. In words: Novel object recognition task in rats. The format is in vivo, rat. As to the method: FIG. 6 illustrates the effect of galantamine, compounds CNB-001, J147, SK186 and SKI 87 on object recognition task in Wistar rats. The data represent mean±SEM. *p<0.05 compared with the vehicle control.
This model is based on the greater spontaneous exploration of a novel object, compared with a familiar object, shown by rodents (see Ennaceur and Delacour in Behav. Brain Res. 31:47 (1988)). Male Wister rats are assessed for cognitive ability in a test apparatus comprising an open-field arena placed in a sound-attenuated room under dimmed lighting. Images of the open-field are captured by digital camera, and viewed on a monitor in an adjoining room. Each rat is subjected to the procedure separately and care is taken to remove any olfactory/taste cues by cleaning the arena and test objects with alcohol between trials and rats.
Adult male Wistar rats were employed in all rat studies. Animals were placed in the experimental rooms at postnatal day 80 and assigned unique identification numbers (tail marked). Pairs were housed in polycarbonate cages with filter tops and acclimated for 3 days prior to commencing any studies. Animals were maintained in a 12 hour light/dark cycle with room temperature maintained at 22±2° C. with a relative humidity maintained approximately 50%. Food and water were provided ad libitum.
All animals were examined, handled, and weighed for a further two days prior to initiation of the study to assure adequate health and suitability and to minimize non-specific stress associated with manipulation. Each animal was randomly assigned across the treatment groups and balanced by cage numbers. The novel object recognition experiment was performed during the animal's light cycle phase. Drug treatments were balanced across days and animals were only used once
The following compounds were used for this study—Reference compound (Galantamine; 3 mg/kg) was dissolved in 0.9% saline and administered i.p. 1 hour pre-test at a dose volume of 1 ml/kg, and all test compounds were handled in solution, and were kept at −80° C. until use. All compounds were administered orally 60 min prior to training at a volume of 1 ml/kg body weight.
Following a 5-minute habituation period, each rat was placed into the test arena in the presence of two identical objects (plastic shapes). Each rat was placed facing the same direction at the same position in the arena, and the time spent actively exploring the objects during a 5-minute test period (T1) was recorded. The rat was returned to its home cage between tests. After 24 hours, each rat was again placed in the test arena for 5 minutes (T2) in the presence of one of the familiar objects and a novel object, and the time spent exploring both objects was again recorded. The presentation order and position of the objects (left/right) was randomized between rats to prevent bias from order or place preference. A preference index for each object, the ratio of the time spent exploring either the familiar object or the novel object over the total time spent exploring both objects (during retention session T2) was used to measure cognitive function.
Data were analyzed by a one-way analysis of variance (ANOVA) followed by post-hoc comparisons with Fisher Tests when appropriate. An effect was considered significant if p<0.05. Data in the following tables are presented as the mean and standard error to the mean.

The values below come from US8779002B2, “Methods for treating a variety of diseases and conditions, and compounds useful therefor” (Salk Institute for Biological Studies, priority 2007, dated 2014).

`COc1cccc(C=NN(C(C)=O)c2ccc(C)cc2C)c1` [Compound J147A]: the figures for the EC50 with HT22 cells, with MC-65 cells and with primary cortical neurons were 70 nM, 280 nM and over 1000 nM, respectively.

Consider `COc1ccc2c3c1O[C@H]1C[C@@H](O)C=C[C@@]31CCN(C)C2` [Galantamine, reference compound], for which the “Recognition index, Mean” value in the experiment on Wistar rats (3 mg/kg i.p. 1 hour pre-test, Wistar rats, n=8) turned out to be 74.037. The “Fisher's PLSD for Recognition index, Mean Diff. (*vehicle, treatment)” value with Wistar rats (vehicle versus 3 mg/kg i.p.) was −22.114.

As to `O=C(N(N=Cc1ccccc1)c1ccccc1)C(F)(F)F` [HF 38FP], the EC50 with HT22 cells was determined as 33 nM; with MC-65 cells, 80 nM; in the experiment with primary cortical neurons it was 70 nM.

For the compound `Cc1ccc(N(N=Cc2ccccc2)C(=O)C(F)(F)F)c(C)c1` [HF 39FP], the results for the EC50 with HT22 cells, in the experiment with MC-65 cells and in the experiment on primary cortical neurons were 37 nM, 220 nM and over 1000 nM, respectively.

`COc1cccc(C=NN(C(=O)C(F)(F)F)c2ccccc2)c1` [HF 40FP]: the EC50 worked out at 75 nM with HT22 cells, 250 nM in the experiment on MC-65 cells and 100 nM in the experiment on primary cortical neurons.

With `Cc1ccc(N(N=Cc2ccccc2)C(=O)C(F)(F)F)cc1` [HF 41FP], the EC50 with HT22 cells is 33 nM; in the experiment on MC-65 cells, over 1000 nM; in the experiment on primary cortical neurons it was over 1000 nM.

In the case of `COc1cccc(C=NN(C(=O)C(F)(F)F)c2ccc(C)cc2)c1` [HF 42FP], the figures for the EC50 with HT22 cells, in the experiment on MC-65 cells and in the experiment on primary cortical neurons were 80 nM, 50 nM and 700 nM, respectively.

In the case of `COc1cccc(C=NN(C(=O)C(F)(F)F)c2ccccc2C)c1` [HF 43 FO], the EC50 in the experiment with HT22 cells is 68 nM; in the experiment with MC-65 cells, 130 nM; in the experiment with primary cortical neurons, over 1000 nM.

In the case of `Cc1ccccc1N(N=Cc1ccccc1)C(=O)C(F)(F)F` [HF 43FP], the figures for the EC50 with HT22 cells, in the experiment on MC-65 cells and in the experiment on primary cortical neurons were 50 nM, 400 nM and 800 nM, respectively.

As for `COc1ccc(C=NN(C(=O)C(F)(F)F)c2ccc(C)cc2C)cc1` [Sk35], the figures for the EC50 in the experiment with HT22 cells, with MC-65 cells and in the experiment on primary cortical neurons were 4 nM, 10 nM and 35 nM, respectively.

Turning to `Cc1ccc(N(N=Cc2ccc(C(=O)O)cc2)C(=O)C(F)(F)F)c(C)c1` [Sk36], the EC50 is 100 nM with HT22 cells, 300 nM in the experiment with MC-65 cells and 300 nM with primary cortical neurons.

The term EC50 denotes the concentration at which the effect is half-maximal.
